According to patent US6338862B1, “Composition and method of use in treating sexual dysfunction using cGMP-specific phosphodiesterase type 5 inhibitors” (priority 2001, dated 2002):

Tests used:
men = conditions: controlled clinical trials; cited from earlier work
[1] = tested on: subjects who had been frequent users of Viagra®; experiment: blinded study in volunteers, subjective evaluation whether an adequate, satisfactory erection was achieved; assay type: in vivo, human; conditions: oral capsule, out of 12 subjects
Method: In its preferred embodiment, three composition containing sildenafil citrate 12.5 mg, 25 or 50 mg containing the same amounts of L-arginine 200 mg, ginseng 100 mg, folic acid 0.5 mg, vitamin B6 100 mg and vitamin B12 0.75 mg were formulated in a capsule dosage form with suitable inert diluents to hide the identity of the product. […] In a blinded study, the volunteers were given all six products to test on an ad-lib basis. They were informed that the test includes evaluation of two formulations of sildenafil citrate. The volunteers were asked to evaluate the response subjectively whether an adequate, satisfactory erection was achieved. In its preferred embodiment, three composition containing sildenafil citrate 12.5 mg, 25 or 50 mg, and the same amounts of L-arginine 200 mg, ginseng 100 mg, folic acid 0.5 mg, vitamin B6 100 mg and vitamin B12 0.75 mg were formulated in a capsule dosage form with suitable inert diluents to hide the identity of the product. […] In a blinded study, the volunteers were given all six products to test on an ad-lib basis. They were informed that the test includes evaluation of two formulations of sildenafil citrate. At the lowest dose of 12.5 mg, when given alone, only 3 out of 12 subjects reported erection; when given as the composition described, 7 out of 12 subjects reported satisfactory erection. At 25 mg dose 8 out of 12 subjects reported satisfactory erection while 10 subjects reported satisfactory erection at 25 mg dose when given as the composition described. At 50 mg dose the difference was narrowed to 10 subjects reporting erection when given alone and 11 when given as the composition described. It is concluded from this study that using the combination of ingredients as specified in the composition, the required dose of sildenafil to treat sexual dysfunction can be reduced to achieve the same effect as when given alone but at higher does. The most significant advantage appears at lower doses. […]

[2] = tested on: isolated human corpus cavernosum; conditions: cited from earlier work

## CCCc1nn(C)c2c(=O)[nH]c(-c3cc(S(=O)(=O)N4CCN(C)CC4)ccc3OCC)nc12.O=C(O)CC(O)(CC(=O)O)C(=O)O [Viagra®, 1-[[3-(6,7-dihydro-1-methyL-7-oxo-3-propyL-1H-pyrazolo[4,3-d]pyrimidin-5-yl)-4-ethoxyphenyl]sulfonyl]-4-methylpiperazine citrate]
men
  proves effective in men: 7 out of 10
[1]; 12.5 mg sildenafil citrate dose
  subjects reporting satisfactory erection: 3 subjects
[1]; 25 mg sildenafil citrate dose
  subjects reporting satisfactory erection: 8 subjects
[1]; 50 mg sildenafil citrate dose
  subjects reporting satisfactory erection: 10 subjects
[2]
  direct relaxant effect: no direct relaxant effect
